Results reported in patent US20180193336A1, “SPRAY DRY FORMULATIONS” (Pulmokine, Inc., priority 2013, published 2018).
≈ marks a conversion by molar mass, not a printed value. Like-named read-outs stand apart in the source and are kept apart here.

Experiments:
[1] = test system: PDGFBB stimulated AKT phosphorylation; experiment: In cell Western, PDGFBB stimulated AKT phosphorylation in human fetal lung fibroblasts; format: cell-based; conditions: for IC50 for inhibiting PDGFBB stimulated AKT phosphorylation relative to imatinib: fetal human lung fibroblasts, FIG. 18
Experimental: HLFs were maintained in subculture at no more than 6 passages in DMEM with 5% FBS and 4 mM Glutamax at 37° C., 5% CO2. HLFs were plated and grown to 70-80% confluence in 96 well plates then serum-starved for 48 hours. […] Antibodies were detected using IRDye 680LT goat anti-mouse IgG and IRDye 800 W goat α-rabbit IgG conjugated antibodies. After washing, the signal was quantified using an Odyssey Infrared Imaging System (LI-COR). Phosphoprotein signal (800 nm) was normalized to total protein signal (700 nm) acquired from each well and experimental duplicates on same plate were averaged and reported.

[2] = test system: rat monocrotaline pneumonectomy model; conditions: inhaled twice daily for ten days
Experimental: Study protocol: male Sprague Dawley rats underwent left pneumonectomy and 10 days later were given monocrotaline 50 mg/kg IP.
Plethysmography was performed with an EMKA 2 chamber body plethysmograph and data acquired with IOX software. Statistical analysis was performed with XLSTAT.

[3] = test system: PDGFAA stimulated phosphorylation of ERK1 and ERK2; experiment: PDGFAA stimulated phosphorylation of ERK1 and ERK2 in human fetal lung fibroblasts; format: cell-based; conditions: 1 uM; PDGFAA 10 ng/ml
Text: (§1) Data shown are mean±SEM. […] PK10453=structure 2; PK10571=structure 2a. Platelet derived growth factor receptor alpha=PDGFR-alpha=PDGFR-α=PDGF receptor alpha=PDGF alpha receptor. Platelet derived growth factor receptor beta=PDGFR-beta=PDGFRβ=PDGF receptor beta=PDGF beta receptor.

[4] = test system: phosphorylated PDGF receptor beta (Y751, Y1021); experiment: Western blot of phosphorylated PDGF receptor beta in adult human lung fibroblasts; conditions: HLFa; 0.01-10 uM, 30 min pre-treatment; 10 ng/mL PDGF BB 7.5 minutes
Experimental: FIG. 40 PANEL A illustrates pPDGFrBeta (Y751), Beta-Actin, Stripped and reprobed with Total PDGFrBeta, note that 25 ug/lane was loaded, with a 1:500 dilution of pPDGFrBeta(Y751) antibody during incubation.
FIG. 40 PANEL B illustrates pPDGFrBeta (Y1021), Beta-Actin, Stripped and reprobed with Total PDGFrBeta, note that 25 ug/lane was loaded, with a 1:500 dilution of pPDGFrBeta(Y1021) antibody during incubation.

[5] = test system: SU5416/hypoxia/normoxia model of PAH; experiment: PK10571 in SU5416/hypoxia/normoxia model of PAH; format: in vivo, rat
Experimental: The SU5416/hypoxia/normoxia model of PAH is well described in the field, is considered to accurately reflect the human disease of PAH and to predict drug response in humans^25. Study animals were administered SU5416 20 mg/kg SQ and placed in a COY Hypoxia chamber at FiO2=10%. Animals studied after 1 week hypoxia; 2 weeks hypoxia/12 days normoxia; 3 weeks hypoxia/12 days normoxia; and 3 weeks hypoxia/5 weeks normoxia. End of study procedures included acquisition of right ventricular pressure volume loops with a Scisense Admittance system. The RV PV loops were acquired on ventilated open chest animals with isoflurane anesthesia and 100% F1O2. In addition a subset of animals had implantation of DSI PAC40 telemetry catheters in the PA. In this subset, PA pressures were monitored continuously in ambulatory animals, and analysis of PA pressures before and after dosing was performed for 7 days of dosing.
PK10571/trehalose/leucine dry powder or Vehicle was administered twice a day via the CH Technologies Exposure System, in the SUGEN5416/2 week hypoxia/normoxia 2 week subgroups.
In the SU5416 model we also examined microfil radiopaque casts of the pulmonary arterial circulation with microCT and 3D reconstruction. The casts were made after flushing the pulmonary circulation of the rats with heparinized saline followed by sodium nitroprusside to maximally vasodilate the pulmonary arterial vessels. Microfil was then injected with a syringe pump at 0.2 ml/min until the proximal PA was engorged and a lattice of microfil was visible in the peripheral lung. The chest was filled with ice saline until the microfil was cured. […] Vehicle treated animal on left. PK10571 treated animal on right. Resolution: 20 microns.

rat MCT+PN model [6] = experiment: Inhaled PK10571 dry powder in rat MCT+PN model, PA telemetry; format: in vivo
Text: We performed a pre-clinical efficacy study of inhaled PK10571 in the rat MCT+PN model. We used the MCT+PN model, because in this model, neointimal pulmonary arteriole proliferative lesions occur in a manner similar to what is observed in the human disease. In this experiment, drug treatment was started later than in prior studies of PK10453.
In prior studies, PK10453 was started 2 weeks after MCT injection (3 weeks after pneumonectomy). In the PK10571 SDD study, treatment was started 3 weeks after MCT injection (4 weeks after pneumonectomy). It should be noted that pneumonectomized rats given MCT develop severe PAH starting two weeks after the MCT injection. (In MCT only rats, it takes longer for PAH to develop (i.e., 3 weeks)). […] A. PK10453 study time drug treatment started (See Pulm Circ 2014 8(1):82-102). B. PK10571 SDD study time treatment started in MCT+PN model. C. Start time typical for MCT only model. Data acquired via telemetry monitoring of PA pressures in ambulatory rats. (Note: Day 11 in MCT+PN model data not shown).
PK10571 dry powder with leucine and trehalose excipient was administered by nose only inhalation 30 minutes (on average) twice a day to the rats, via a Vilnius Dry Powder Generator connected to a CH Technologies Exposure tower. Estimated average API dose deposited in lung 0.25 mg/kg (calculated from measurement of aerosol concentration and minute ventilation of pneumonectomized rat) with estimated human dose equivalent (HED) 0.04 mg/kg. […] The mode of death of these animals has not been fully characterized but may be related to RV failure. We have noted that although pulmonary pressures rise gradually and progressively over a period of two weeks after MCT injection, in the third week, animals may enter a “crisis” phase and die suddenly. […] This finding confirms the disease modifying potential of PK10571. One animal in the drug treatment group was euthanized for weight loss on day 5 as per our preset criteria.

PDGFRbeta = PDGFRbeta (Homo sapiens, UniProt P09619); conditions: FIG. 25
Sequence of PDGFRbeta (P09619 600-962 limits assumed): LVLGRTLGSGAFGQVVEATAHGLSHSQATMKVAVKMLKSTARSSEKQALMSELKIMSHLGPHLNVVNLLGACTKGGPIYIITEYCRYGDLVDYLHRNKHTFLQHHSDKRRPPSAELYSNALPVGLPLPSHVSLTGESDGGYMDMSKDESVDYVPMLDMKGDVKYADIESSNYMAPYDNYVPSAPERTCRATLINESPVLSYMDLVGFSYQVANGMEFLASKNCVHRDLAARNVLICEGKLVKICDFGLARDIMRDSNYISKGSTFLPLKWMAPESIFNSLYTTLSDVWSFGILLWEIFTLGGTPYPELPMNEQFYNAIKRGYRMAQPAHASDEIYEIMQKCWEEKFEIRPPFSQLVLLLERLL
Experimental: A Z-lyte kinase assay was performed to determine the inhibition of PDGFRalpha and PDGFRbeta mediated phosphorylation by PK10453 (Structure 2). Ten point titration curves were modeled to calculate the IC50 (Invitrogen Select Screen®).

physchem = experiment: physchem
Text: To maximize the amount of hydrophobic shell former (Leucine) on the surface, a higher ratio is desired.

[7] = test system: PDGFBB stimulated phosphorylation of ERK1 and ERK2; experiment: PDGFBB stimulated phosphorylation of ERK1 and ERK2 in human fetal lung fibroblasts; format: cell-based
Text: as §1

[8] = typically; cited from earlier work
rat MCT+PN model [9] = experiment: Telemetry of pulmonary artery pressure in rat MCT+PN model; format: in vivo; conditions: rat MCT+PN
Experimental: Pneumonectomy and implantation of a TRM53P telemetry monitor in the pulmonary artery (Telemetry Research, New Zealand and ADInstruments, Colorado) was carried out in rats. Two weeks after MCT, PK10453 (Structure 2) was administered three times daily for 1 week. […] The two groups underwent 4 min exposures of either the vehicle control or PK10453 (Structure 2). Sampling of PA pressure was performed 5 min before each morning dose in ambulatory animals in room air (estimated atmospheric pressure 716 mm Hg based on elevation of animal facility). […] Telemetry data was obtained for 10 min daily before each morning dose for this protocol.

[10] = dry powder with leucine and trehalose, inhaled twice a day, within treatment group

SMILES: COc1cc(-c2cncc(N[C@@H](C)c3cccc(NC(=O)c4cncc(C)c4)c3)n2)ccc1C [PK10569]
- IC50 for inhibiting PDGFBB stimulated AKT phosphorylation relative to imatinib [1]: lower IC50 concentration compared to imatinib

SMILES: COc1ccc(-c2cncc(N[C@@H](C)c3cccc(NC(=O)c4cncc(C)c4)c3)n2)cc1OC [PK10571]
- IC50 ([1]; Homo sapiens, Fibroblast, FIG. 26, each concentration in duplicate, read-out: IC50, PDGF BB stimulated pAKT in human lung fibroblasts): 50 nM
- IC50 for inhibiting PDGFBB stimulated AKT phosphorylation relative to imatinib [1]: lower IC50 concentration compared to imatinib
- airway resistance compared to vehicle [2]: no significant difference
- minute ventilation compared to vehicle [2]: no significant difference
- respiratory rate compared to vehicle [2]: lower
- tidal volume compared to vehicle [2]: significantly improved
- decrease of PDGF AA stimulated ppERK1 and ppERK2 formation [3]: equally effective
- phosphorylation of PDGF receptor beta [4]: decreases phosphorylation
- RV end systolic pressure compared to vehicle ([5]; SU5416, 2 weeks hypoxia, 12 days normoxia, PK10571/trehalose/leucine dry powder twice a day): significant reduction
- PA systolic pressure after dosing compared to before dosing ([5]; on some days, telemetry): significant decrease
- 3D microCT of pulmonary arterial vasculature ([5]; preliminary, compared to vehicle treated animal): more third and fourth generation branches
- effect on pulmonary artery pressures (rat MCT+PN model [6]; dry powder containing leucine and trehalose): effective in lowering pulmonary artery pressures
- reduction of PA pressure, day 8 compared to day 1 (rat MCT+PN model [6]; [10]): 22%
- reduction of PA pressure, day 8 vs. day 3 (rat MCT+PN model [6]; [10]): 35%
- PA systolic pressure post dose (approximately 1 hour) vs pre-dose (rat MCT+PN model [6]; early stage of treatment, up to day 4): transient decrease
- potency against PDGFR beta kinase domain relative to imatinib (PDGFRbeta): more potent than imatinib
- solubility (physchem; aqueous with cosolvent or surfactant or cyclodextrin): 50 mg/mL (≈ 106 mM)
- solubility (physchem; organic solvent or mixture): 50 mg/mL (≈ 106 mM)
- solubility in water (physchem; pH 7): insoluble
- decrease of PDGF BB stimulated ppERK1 and ppERK2 relative to imatinib ([7]; 1 uM and 10 uM): more effective
- decrease of PDGFBB stimulated ppERK1 formation ([7]; 1 uM, PDGF BB 10 ng/ml): effective

SMILES: CC(C)C[C@H](N)C(=O)O [L-Leucine]
- solubility in EtOH [8]: insoluble
- solubility in water [8]: 25 to 30 mg/mL
- concentration obtained with a 2:1 EtOH:H2O mixture (physchem): up to 13 mg/ml
- concentration at which precipitated, 1:1 v:v EtOH:H2O solution (physchem; room temperature): 5000 to 10000 µg/mL

SMILES: Cc1ccc(NC(=O)c2ccc(CN3CCN(C)CC3)cc2)cc1Nc1nccc(-c2cccnc2)n1 [Imatinib, reference compound]
- efficacy by inhalation in the MCT+PN model (rat MCT+PN model [9]): not effective
- decrease of PDGF AA stimulated ppERK1 and ppERK2 formation [3]: equally effective

SMILES: COc1cc(-c2cncc(N[C@@H](C)c3cccc(NC(=O)c4cnc(C#N)nc4)c3)n2)ccc1O [PK10467]
- IC50 for inhibiting PDGFBB stimulated AKT phosphorylation relative to imatinib [1]: lower IC50 concentration compared to imatinib

SMILES: C=CS(=O)(=O)NCc1ccc(C(=O)Nc2cccc([C@H](C)Nc3cncc(-c4ccc(O)c(OC)c4)n3)c2)cc1 [PK10468]
- IC50 for inhibiting PDGFBB stimulated AKT phosphorylation relative to imatinib [1]: lower IC50 concentration compared to imatinib
